Columns and labels:
[1] = test system: Soybean, Williams, Glycine max; assay: Postemergence herbicidal evaluation, GLXMAW; format: in vivo, (L.) Merr. cv Williams
In short: (§1)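 Foliar spray, 40 psi, ~0.0157–0.500 kg a.i./ha, vehicle acetone/water 1:1 with 0.5% TWEEN 20, on seedlings grown ~2 weeks. Readout: 0–9 visual injury score relative to control at 4–5 weeks.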

[2] = test system: Galium, Galium aparine; assay: Preemergence herbicidal evaluation, GALAP; format: in vivo; conditions: 0.2500 kg/ha
In short: (§2)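 Greenhouse preemergence test with soil-surface spray of compound (aqueous acetone, approx. 0.0156–0.500 kg per hectare) just after planting. Injury was scored visually on a 0–9 scale at 4–5 weeks.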

[3] = test system: Foxtail, Green, Setaria viridis; assay: Preemergence herbicidal evaluation, SETVI; format: in vivo, (L.) Beau; conditions: 0.2500 kg/ha
In short: as §2

[4] = test system: Sicklepod, Cassia obtusifolia; assay: Preemergence herbicidal evaluation, CASOB; format: in vivo, L.; conditions: 0.2500 kg/ha
In short: as §2

[5] = test system: ECHORC Watergrass (Calif.); assay: Preemergence weed control, flooded paddy (Table III); format: in vivo, Echinochloa oryzoides; parameters: scale not given here
Description: (§3) Preemergence herbicidal activity under flooded paddy conditions is determined as follows: plant seeds or propagating organs are planted in the top 0.5 cm of silt loam soil in 32 oz. plastic containers with a diameter of 10.5 cm and no drainage holes. Water is added to these containers and maintained at 1.5 to 3 cm above the soil surface for the duration of the experiment. The test compounds are applied as aqueous/acetone mixtures 50/50 v/v pipetted directly into the flood water to give the equivalent of about 0.0313 to 0.500 kg/ha of active ingredient. The treated containers are placed on greenhouse benches and cared for in accordance with conventional greenhouse procedures. Three to four weeks after treatment, the test is terminated and each container is examined and herbicidal effect rated according to the rating system provided in Example 185. The compounds evaluated are reported by compound number given in Example 185.

[6] = test system: Lambsquarters, Common, Chenopodium album; assay: Postemergence herbicidal evaluation, CHEAL; format: in vivo, L.
In short: as §1

[7] = test system: SAGPY Arrowhead (Pygmaea); assay: Preemergence weed control, flooded paddy (Table III); format: in vivo, Sagittaria pygmaea; parameters: scale not given here
Description: as §3

[8] = test system: Soybean, Glycine max; assay: Postemergence herbicidal evaluation, GLXMA; format: in vivo, (L.) Merr.; conditions: 0.2500 kg/ha
Description: In the tests, seedling plants are grown in jiffy flats for about two weeks. The test compounds are dispersed in 50/50 acetone/water mixtures containing 0.5% TWEEN®20, a polyoxyethylene sorbitan monolaurate surfactant of Atlas Chemical Industries, in sufficient quantities to provide the equivalent of about 0.0157 kg to 0.500 kg per hectare of active compound when applied to the plants through a spray nozzle operating at 40 psi for a predetermined time. After spraying, the plants are placed on greenhouse benches and are cared for in accordance with conventional greenhouse procedures. From four to five weeks after treatment, the seedling plants are examined and rated according to the rating system set forth below. Where more than one test is involved for a given compound, the data are averaged.
(§4) Results of herbicide evaluation are expressed on a rating scale (0-9). The scale is based upon a visual observation of plant stand, vigor, malformation, size, chlorosis and overall plant appearance as compared with a control.

[9] = test system: CYPIR Rice Flatsedge; assay: Preemergence weed control, flooded paddy (Table III); format: in vivo, Cyperus iria; parameters: scale not given here
Description: as §3

[10] = test system: Corn, Field, Zea mays; assay: Preemergence herbicidal evaluation, ZEAMX; format: in vivo, L.; conditions: 0.2500 kg/ha
In short: as §2

[11] = test system: Barnyardgrass, Echinochloa crus-galli; assay: Preemergence herbicidal evaluation, ECHCG; format: in vivo, (L.) Beau; conditions: 0.2500 kg/ha
In short: as §2

[12] = test system: Corn, Field, Zea mays; assay: Postemergence herbicidal evaluation, ZEAMX; format: in vivo, L.
In short: as §1

[13] = test system: Barnyardgrass, Echinochloa crus-galli; assay: Postemergence herbicidal evaluation, ECHCG; format: in vivo, (L.) Beau
In short: as §1

[14] = test system: Morningglory, Ivyleaf, Ipomoea hederacea; assay: Preemergence herbicidal evaluation, IPOHE; format: in vivo, (L.) Jacq.; conditions: 0.2500 kg/ha
In short: as §2

[15] = test system: ECHORC Watergrass (Calif.); assay: Postemergence weed control, flooded paddy (Table IV); format: in vivo, Echinochloa oryzoides; parameters: scale not given here
In short: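 Flooded greenhouse pots; water 1.5–3 cm over soil throughout. Weeds 3–5 cm, rice 1.5–2.5 leaf. Dose ~0.0313–0.500 kg/ha a.i., aqueous/acetone 50/50 v/v into flood water. Visual herbicidal rating at 3–4 wk.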

[16] = test system: Ragweed, Common, Ambrosia artemisifolia; assay: Postemergence herbicidal evaluation, AMBEL; format: in vivo, L.
In short: as §1

[17] = test system: Rice, Tebonnet, Oryza sativa; assay: Postemergence herbicidal evaluation, ORYSAT; format: in vivo, (L.) Tebonnet
In short: as §1

[18] = test system: Velvetleaf, Abutilon theophrasti; assay: Preemergence herbicidal evaluation, ABUTH; format: in vivo, Medic.; conditions: 0.2500 kg/ha
In short: as §2

[19] = test system: Soybean, Williams, Glycine max; assay: Preemergence herbicidal evaluation, GLXMAW; format: in vivo, (L.) Merr. cv Williams; conditions: 0.2500 kg/ha
In short: as §2

[20] = test system: Wheat, Winter, cv Riband, Triticum aestivum; assay: Postemergence herbicidal evaluation, TRZAWR; format: in vivo
In short: as §1

[21] = test system: Morningglory Spp., Ipomoea Spp.; assay: Preemergence herbicidal evaluation, IPOSS; format: in vivo; conditions: 0.2500 kg/ha
Description: as §4
(§5) The preemergence herbicidal activity of the test compounds of the present invention is exemplified by the following tests in which the seeds of a variety of monocotyledonous and dicotyledonous plants are separately mixed with potting soil and planted on top of approximately one inch of soil in separate pint cups. After planting, the cups are sprayed with the selected aqueous acetone solution containing test compound in sufficient quantity to provide the equivalent of about 0.0156 to 0.500 kg per hectare of test compound per cup. The treated cups are then placed on greenhouse benches, watered and cared for in accordance with conventional greenhouse procedures. From four to five weeks after treatment, the tests are terminated and each cup is examined and rated according to the rating system provided in Example 185.
(§6) The compounds evaluated are reported by compound number given in Example 185.

[22] = test system: Lambsquarters, Common, Chenopodium album; assay: Preemergence herbicidal evaluation, CHEAL; format: in vivo, L.; conditions: 0.2500 kg/ha
In short: as §2

[23] = test system: Soybean, Glycine max; assay: Preemergence herbicidal evaluation, GLXMA; format: in vivo, (L.) Merr.; conditions: 0.2500 kg/ha
Description: as §4, §5, §6

COc1ccc(C)cc1-c1nsc2ccc(-n3c(=O)cc(C(F)(F)F)n(C)c3=O)cc12 [Compound 1, 3-[3-(6-Methoxy-m-tolyl)-1,2-benzisothiazol-5-yl]-1-methyl-6-(trifluoromethyl)-2,4(1H,3H)-pyrimidinedione]
herbicide rating (0-9) ([1]; 0.0630 kg/ha): 6.0 | herbicide rating (0-9) ([1]; 0.2500 kg/ha): 7.0 | herbicide rating (0-9) [2]: 9.0 | herbicide rating (0-9) [3]: 9.0 | herbicide rating (0-9) [4]: 9.0 | herbicidal effect rating ([5]; 0.0313 kg/ha): 9.0 | herbicidal effect rating ([5]; 0.0625 kg/ha): 9.0 | herbicidal effect rating ([5]; 0.1250 kg/ha): 9.0 | herbicidal effect rating ([5]; 0.2500 kg/ha): 9.0 | herbicidal effect rating ([5]; 0.5000 kg/ha): 9.0 | herbicide rating (0-9) ([6]; 0.0630 kg/ha): 9.0 | herbicide rating (0-9) ([6]; 0.2500 kg/ha): 9.0 | herbicidal effect rating ([7]; 0.0313 kg/ha): 3.3 | herbicidal effect rating ([7]; 0.0625 kg/ha): 5.0 | herbicidal effect rating ([7]; 0.1250 kg/ha): 6.7 | herbicidal effect rating ([7]; 0.2500 kg/ha): 8.3 | herbicidal effect rating ([7]; 0.5000 kg/ha): 8.5 | herbicide rating (0-9) [8]: 9.0 | herbicidal effect rating ([9]; 0.0313 kg/ha): 9.0 | herbicidal effect rating ([9]; 0.0625 kg/ha): 9.0 | herbicidal effect rating ([9]; 0.1250 kg/ha): 9.0 | herbicidal effect rating ([9]; 0.2500 kg/ha): 9.0 | herbicidal effect rating ([9]; 0.5000 kg/ha): 9.0 | herbicide rating (0-9) [10]: 6.5 | herbicide rating (0-9) [11]: 9.0 | herbicide rating (0-9) ([12]; 0.0630 kg/ha): 6.0 | herbicide rating (0-9) ([12]; 0.2500 kg/ha): 7.0 | herbicide rating (0-9) ([13]; 0.0630 kg/ha): 7.0 | herbicide rating (0-9) ([13]; 0.2500 kg/ha): 9.0 | herbicide rating (0-9) [14]: 8.0 | herbicidal effect rating ([15]; 0.1250 kg/ha): 6.5 | herbicidal effect rating ([15]; 0.2500 kg/ha): 8.0 | herbicidal effect rating ([15]; 0.5000 kg/ha): 9.0 | herbicide rating (0-9) ([16]; 0.0630 kg/ha): 9.0 | herbicide rating (0-9) ([16]; 0.2500 kg/ha): 9.0 | herbicide rating (0-9) ([17]; 0.0630 kg/ha): 4.3 | herbicide rating (0-9) ([17]; 0.2500 kg/ha): 5.0 | herbicide rating (0-9) [18]: 9.0 | herbicide rating (0-9) [19]: 7.5 | herbicide rating (0-9) ([20]; 0.0630 kg/ha): 5.3 | herbicide rating (0-9) ([20]; 0.2500 kg/ha): 5.5 | herbicide rating (0-9) [21]: 4.0 | herbicide rating (0-9) [22]: 9.0

Cn1c(C(F)(F)F)cc(=O)n(-c2ccc3snc(-c4ccccc4)c3c2)c1=O [Compound 4, 1-Methyl-3-(3-phenyl-1,2-benzisothiazol-5-yl)-6-(trifluoromethyl)-2,4(1H,3H)-pyrimidinedione]
herbicide rating (0-9) [2]: 9.0 | herbicide rating (0-9) [3]: 9.0 | herbicide rating (0-9) [4]: 9.0 | herbicidal effect rating ([5]; 0.0313 kg/ha): 9.0 | herbicidal effect rating ([5]; 0.0625 kg/ha): 9.0 | herbicidal effect rating ([5]; 0.1250 kg/ha): 9.0 | herbicidal effect rating ([5]; 0.2500 kg/ha): 9.0 | herbicidal effect rating ([5]; 0.5000 kg/ha): 9.0 | herbicide rating (0-9) ([6]; 0.2500 kg/ha): 9.0 | herbicidal effect rating ([7]; 0.0313 kg/ha): 2.0 | herbicidal effect rating ([7]; 0.0625 kg/ha): 2.0 | herbicidal effect rating ([7]; 0.1250 kg/ha): 6.0 | herbicidal effect rating ([7]; 0.2500 kg/ha): 9.0 | herbicidal effect rating ([7]; 0.5000 kg/ha): 9.0 | herbicide rating (0-9) [8]: 9.0 | herbicidal effect rating ([9]; 0.0313 kg/ha): 9.0 | herbicidal effect rating ([9]; 0.0625 kg/ha): 9.0 | herbicidal effect rating ([9]; 0.1250 kg/ha): 9.0 | herbicidal effect rating ([9]; 0.2500 kg/ha): 9.0 | herbicidal effect rating ([9]; 0.5000 kg/ha): 9.0 | herbicide rating (0-9) [10]: 7.0 | herbicide rating (0-9) [11]: 9.0 | herbicide rating (0-9) ([12]; 0.2500 kg/ha): 3.0 | herbicide rating (0-9) ([13]; 0.2500 kg/ha): 8.0 | herbicidal effect rating ([15]; 0.1250 kg/ha): 9.0 | herbicidal effect rating ([15]; 0.2500 kg/ha): 9.0 | herbicidal effect rating ([15]; 0.5000 kg/ha): 9.0 | herbicide rating (0-9) ([16]; 0.2500 kg/ha): 9.0 | herbicide rating (0-9) ([17]; 0.2500 kg/ha): 3.0 | herbicide rating (0-9) [18]: 9.0 | herbicide rating (0-9) [23]: 7.0 | herbicide rating (0-9) ([20]; 0.2500 kg/ha): 3.0 | herbicide rating (0-9) [21]: 9.0 | herbicide rating (0-9) [22]: 9.0

CCc1ccc(-c2nsc3ccc(-n4c(=O)cc(C(F)(F)F)n(C)c4=O)cc23)cc1 [Compound 5, 3-[3-(p-Ethylphenyl)-1,2-benzisothiazol-5-yl]-1-methyl-6-(trifluoromethyl)-2,4 (1H,3H)-pyrimidinedione]
herbicide rating (0-9) [2]: 6.0 | herbicide rating (0-9) [3]: 9.0 | herbicide rating (0-9) [4]: 9.0 | herbicidal effect rating ([5]; 0.0313 kg/ha): 9.0 | herbicidal effect rating ([5]; 0.0625 kg/ha): 9.0 | herbicidal effect rating ([5]; 0.1250 kg/ha): 9.0 | herbicidal effect rating ([5]; 0.2500 kg/ha): 9.0 | herbicidal effect rating ([5]; 0.5000 kg/ha): 9.0 | herbicide rating (0-9) ([6]; 0.2500 kg/ha): 9.0 | herbicidal effect rating ([7]; 0.0313 kg/ha): 0.0 | herbicidal effect rating ([7]; 0.0625 kg/ha): 0.0 | herbicidal effect rating ([7]; 0.1250 kg/ha): 2.0 | herbicidal effect rating ([7]; 0.2500 kg/ha): 7.0 | herbicidal effect rating ([7]; 0.5000 kg/ha): 7.0 | herbicide rating (0-9) [8]: 7.0 | herbicidal effect rating ([9]; 0.0313 kg/ha): 9.0 | herbicidal effect rating ([9]; 0.0625 kg/ha): 9.0 | herbicidal effect rating ([9]; 0.1250 kg/ha): 9.0 | herbicidal effect rating ([9]; 0.2500 kg/ha): 9.0 | herbicidal effect rating ([9]; 0.5000 kg/ha): 9.0 | herbicide rating (0-9) [10]: 3.0 | herbicide rating (0-9) [11]: 9.0 | herbicide rating (0-9) ([12]; 0.2500 kg/ha): 3.0 | herbicide rating (0-9) ([13]; 0.2500 kg/ha): 7.0 | herbicidal effect rating ([15]; 0.1250 kg/ha): 6.0 | herbicidal effect rating ([15]; 0.2500 kg/ha): 9.0 | herbicidal effect rating ([15]; 0.5000 kg/ha): 9.0 | herbicide rating (0-9) ([16]; 0.2500 kg/ha): 9.0 | herbicide rating (0-9) ([17]; 0.2500 kg/ha): 3.0 | herbicide rating (0-9) [18]: 9.0 | herbicide rating (0-9) [23]: 4.0 | herbicide rating (0-9) ([20]; 0.2500 kg/ha): 2.0 | herbicide rating (0-9) [21]: 9.0 | herbicide rating (0-9) [22]: 9.0
